According to patent US8957129B2, “Aqueous coatings and paints incorporating one or more antimicrobial biosurfactants and methods for using same” (priority 2012, dated 2015):
Values after ≈ are worked out from the molar mass of the structure shown. Like-named read-outs stand apart in the source and are kept apart here. Values belong to the compound of their own block, whether it stands above or below them.

Tests used:
Aspergillus niger = experiment: MIC determination in broth media, two fold dilution, microtiter plates; assay type: cell-based
Candida albicans = experiment: as above; assay type: cell-based; conditions: read-out: Minimum Inhibitory Concentration (MIC), alone (QA/QB)
Bacillus cereus = experiment: as above; assay type: cell-based; conditions: read-out: Minimum Inhibitory Concentration (MIC), alone (QA/QB)
S. aureus = experiment: as above; assay type: cell-based; conditions: Staphylococcus aureus, read-out: Minimum Inhibitory Concentration (MIC), alone (QA/QB)
E. coli = experiment: as above; assay type: cell-based; conditions: Escherichia coli, read-out: Minimum Inhibitory Concentration (MIC), alone (QA/QB), E. coli, substance alone
P. aeruginosa = experiment: as above; assay type: cell-based, Pseudomonas aeruginosa; conditions: for MIC: Pseudomonas aeruginosa
B. cepacia = experiment: as above; assay type: cell-based, Burkhlderia cepacia; conditions: for MIC: Burkholderia cepacia, read-out: Minimum Inhibitory Concentration (MIC), alone (QA/QB)
bacteria = experiment: Challenge test of combinations of Rhamnolipids with Isothiazolinones in flat paint; assay type: cell-based; conditions: levels: RL 250 ppm, CMIT/MIT 5 ppm, MIT 25 ppm, BIT 50 ppm
Procedure: (§1) A second batch of flat paint formulation was prepared without any surfactants. Then Rhamnolipids (RL) were post-added to this formulation. The formulation was then subjected to an initial screen challenge test using 250 to 2000 ppm RL with mixed populations of E. coli and Pseudomonas aeruginosa.
(§2) Using the same paints, a biocide at lower use level was combined with Rhamnolipid (RL) at a minimum use of 250 ppm.

fungi = experiment: as above; assay type: cell-based; conditions: levels: RL 250 ppm, CMIT/MIT 5 ppm, MIT 25 ppm, BIT 50 ppm
Procedure: as §1, §2

[1] = B. cepacia, substance alone, broth

SMILES: Cn1sccc1=O [MIT, Methyl Isothiazolinone]
MIC (Aspergillus niger; read-out: Minimum Inhibitory Concentration (MIC), alone (QA/QB), Aspergillus niger, substance alone): > 100 µg/mL | Minimum Inhibitory Concentration (MIC), alone (QA/QB) (Aspergillus niger; substance alone): 100 ppm | MIC (Candida albicans): 100 µg/mL (≈ 868 µM) | MIC (Bacillus cereus): 25 µg/mL (≈ 217 µM) | MIC (S. aureus): 25 µg/mL (≈ 217 µM) | MIC (E. coli): ~25 µg/mL (≈ 217 µM) | Minimum Inhibitory Concentration (MIC), alone (QA/QB) (P. aeruginosa; P. aeruginosa, substance alone): 25 ppm | MIC (P. aeruginosa; read-out: Minimum Inhibitory Concentration (MIC), alone (QA/QB), P. aeruginosa, substance alone): 12.5 µg/mL (≈ 109 µM) | MIC (B. cepacia): 25 µg/mL (≈ 217 µM) | Day 1 Bacteria growth (bacteria): − | Day 2 Bacteria growth (bacteria): − | Day 5 Bacteria growth (bacteria): − | Day 1 Fungi growth (fungi): + | Day 2 Fungi growth (fungi): + | Day 5 Fungi growth (fungi): −

MIC (Aspergillus niger; substance alone, read-out: Minimum Inhibitory Concentration (MIC), alone (QA/QB)): 50 µg/mL (≈ 331 µM) | MIC (Candida albicans; substance alone, broth): 25 µg/mL (≈ 165 µM) | MIC (Bacillus cereus; substance alone, broth): 25 µg/mL (≈ 165 µM) | MIC (S. aureus; S. aureus, substance alone, broth): 25 µg/mL (≈ 165 µM) | MIC (P. aeruginosa; P. aeruginosa, substance alone, read-out: Minimum Inhibitory Concentration (MIC), alone (QA/QB)): 25 µg/mL (≈ 165 µM) | Minimum Inhibitory Concentration (MIC), alone (QA/QB) (B. cepacia; [1]): 25 ppm | MIC (B. cepacia; [1]): 50 µg/mL (≈ 331 µM)
SMILES: O=c1[nH]sc2ccccc12 [BIT, Benz Isothiazolinone]
Day 1 Bacteria growth (bacteria): − | Day 2 Bacteria growth (bacteria): − | Day 5 Bacteria growth (bacteria): − | Day 1 Fungi growth (fungi): + | Day 2 Fungi growth (fungi): + | Day 5 Fungi growth (fungi): +
